Experimental data taken from patent publication US10718028B2, “Fluorescent probes for abasic site detection” (CASE WESTERN RESERVE UIVERSITY, priority 2015, dated 2020).
Entries after “also recorded” stand apart in the source; their conditions may differ.

How the values were obtained:
[1] = Optical properties of Cy7MX in various solvents (Example 2); format: physicochemical
Source text: Fluorescence quantum yield measurements. Fluorescent quantum yields determined by a comparative method to an indocyanine green (ICG) standard (F=0.132 in EtOH) with refractive index correction according to the equation:
[formula] • where F is the quantum yield; m is the slope of the integrated fluorescence intensity as a function of absorbance maxima; n is the refractive index of the solvent (EtOH, 1.3611; MeCN, 1.3442; H2O, 1.333; and CHCl3, 1.4459); and R is the reference sample, ICG in EtOH. Data were collected in a quartz cuvette with a 1 cm path length. Absorbance maxima for each sample were kept at or below 0.2 absorbance units to avoid inner filter effects. Fluorophores were excited at 700 nm and emission spectra integrated from 705 to 1000 nm. Solvents used were spectroscopic grade ethanol and HPLC grade acetonitrile, HPLC grade chloroform, and HPLC grade water. For the water solution, Cy7MX was first dissolved in MeCN and diluted at least 200 fold. SSB Activity Assay General Procedures
The absorption and fluorescence properties of Cy7MX were then evaluated in relatively nonpolar (CHCl3), polar aprotic (MeCN), and polar protic (EtOH and H2O) solvents. […] Likewise, the quantum yields of Cy7MX in these solvents compare favorably with other cyanine dyes (Table 3).

APE = molecular target: T1, APE (Homo sapiens, UniProt P27695); experiment: SSB activity assay APE inhibition; format: biochemical
T1 construct: purchased New England BioLabs
Experimental: FIG. 7 illustrates the evaluation of APE inhibition by Cy7MX. […] APE is inhibited about 50% after 3 h incubation. The baseline reduction in cutting is due to competition of APE and Cy7MX for the AP-DNA substrate.
Meanwhile, five samples of each DNA reaction were prepared.
We determined if Cy7MX could inhibit the activity of the enzymes and thereby complicate the results on the assay. While the order of reagent addition in the assay may be structured to avoid enzyme inhibition, Cy7MX is envisioned as an imaging agent in living cells where the enzymes are constantly present. To test the possible inhibition of Cy7MX towards APE, the probe and enzyme were incubated together for a variable period of time then incubated for a fixed period of time with AP DNA (U:A DNA pretreated with UDG). If the two species were only competing for substrate, then the extent of cutting observed would be independent of the APE+Cy7MX incubation time. Conversely, if Cy7MX inhibits the action of APE, then the extent of cutting would vary as a function of APE+Cy7MX incubation time. In either case, some baseline reduction in cutting was expected as Cy7MX and APE competed for substrate. […] However, this effect was only observed after 60 minutes. Thus, the one hour incubation of APE in the cutting assay is not expected to be negatively impacted by the presence of Cy7MX.

U:A-paired DNA = experiment: SSB activity assay control reactions; format: biochemical
Experimental: SSB Activity Assay Control Reactions
Samples were prepared in triplicate.
After evaluating the fluorescence properties of Cy7MX, its ability to bind to AP sites was examined We developed an assay using a fluorescently tagged dsDNA (double stranded DNA) oligonucleotide with a single uracil incorporated into the labeled strand (FIG. 5A). A green emitting hexachlorofluorescein (HEX) label was incorporated at the 5′ end of the sense strand in order to avoid overlapping with the NIR fluorecent emission of Cy7MX. We expected that treatment of this oligomer with UDG would generate an AP site and subsequent treatment with APE would produce a single strand break. This break could be visualized by denaturing gel electrophoresis to reveal a 16mer single strand DNA (ssDNA) instead of the 40mer parent (FIG. 5B). However, we hypothesized that if the oligomer were treated with Cy7MX prior to APE treatment, the covalent Cy7MX:AP site lesion would not be recognized by APE as a substrate and no SSB would form.

[2] = test system: AP sites in calf thymus AP DNA; experiment: Genomic DNA time course of Cy7MX binding; settings: heat/acid treated DNA, 37° C.
Experimental: Calf thymus DNA was purchased from Sigma and was reconstituted overnight at 4° C. in either H2O or 500 mM MX (to eliminate basal AP sites) with gentle shaking (1.5 mL water or solution per 5 mg DNA). For samples reconstituted in MX solution, an ethanol precipitation was performed twice before heat and acid treatment (vide infra) then reconstituted in water. The DNA-water solution was aliquoted to 1.5 mL Eppendorf tubes (360 μL) and 10× Citrate buffer (1M NaCl, 100 μM monosodium phosphate, 100 μM monosodium citrate, pH 5.0) was added to a final concentration of 1×. For t=0 min samples, ice-cold 100% EtOH (1.0 mL) was added immediately and the Eppendorf tubes stored at −20° C. Other samples were placed in a 70° C. heating block for 15-90 minutes in 15-minute increments. Samples were removed from heat, precipitated in ice-cold 100% EtOH (1.0 mL), and then chilled at −20° C. for at least 20 minutes. Samples were centrifuged at 12,000×G for 10 min at 4° C. The supernatant was discarded. The process was repeated once beginning with the addition of EtOH (1.0 mL). The DNA pellet was dissolved in 700 μL H2O or TE buffer. […]
A 100 mM stock solution of Cy7MX in DMSO was diluted to 25 μM in H2O. […] Aliquots (125 μL) of the samples were added to a black, clear-bottom 96 well plate (Corning) and analyzed with 750 nm excitation and 800 nm emission. Fluorescence was adjusted to DNA concentration.

T1 sequence (P27695 whole entry): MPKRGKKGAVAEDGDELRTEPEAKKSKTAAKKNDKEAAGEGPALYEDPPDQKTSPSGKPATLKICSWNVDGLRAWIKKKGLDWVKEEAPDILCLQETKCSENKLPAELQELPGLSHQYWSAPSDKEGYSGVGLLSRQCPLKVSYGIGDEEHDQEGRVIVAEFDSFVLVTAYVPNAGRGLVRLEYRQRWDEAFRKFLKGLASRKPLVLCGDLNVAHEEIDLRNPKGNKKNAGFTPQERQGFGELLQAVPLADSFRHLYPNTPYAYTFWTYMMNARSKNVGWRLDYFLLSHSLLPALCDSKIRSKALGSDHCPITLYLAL

Question: Which Φ ([1]; CHCl3) does the source give for `CCCN1/C(=C/C=C2\CCCC(/C=C/C3=[N+](CCC)c4ccccc4C3(C)C)=C2Oc2ccc(CC(=O)NCCCON)cc2)C(C)(C)c2ccccc21` [Cy7MX, 2-((E)-2-((E)-2-(4-(2-((3-(aminooxy)propyl)amino)-2-oxoethyl)phenoxy)-3-((E)-2-(3,3-dimethyl-1-propylindolin-2-ylidene)ethylidene)cyclohex-1-en-1-yl)vinyl)-3,3-dimethyl-1-propyl-3H-indol-1-ium 2,2,2-trifluoroacetate] here?
Answer: 38.2%

Question: And the λabs ([1]; CHCl3)?
Answer: 770 nm

Question: What about the λem ([1]; CHCl3) of the same compound?
Answer: 791 nm

Question: What about the absorption maximum ([1]; CHCl3, MeCN, EtOH and H2O) of the same compound?
Answer: ~770 nm

Question: And the emission maximum ([1]; CHCl3, MeCN, EtOH and H2O)?
Answer: ~790 nm

Question: And the solvatochromic shifts ([1]; CHCl3, MeCN, EtOH and H2O)?
Answer: No solvatochromic shifts were observed

Question: And the Φ ([1]; EtOH)?
Answer: 39.3%

Question: What about the ε ([1]; EtOH) of the same compound?
Answer: 127,000 M−1cm−1

Question: And the λabs ([1]; EtOH)?
Answer: 770 nm

Question: And the λem ([1]; EtOH)?
Answer: 796 nm

Question: What about the Φ ([1]; H2O) of the same compound?
Answer: 6.6%

Question: And the ε ([1]; H2O)?
Answer: 140,000 M−1cm−1

Question: What about the λabs ([1]; H2O) of the same compound?
Answer: 767 nm

Question: And the λem ([1]; H2O)?
Answer: 790 nm

Question: And the Φ ([1]; MeCN)?
Answer: 48.7%

Question: What about the ε ([1]; MeCN) of the same compound?
Answer: 154,000 M−1cm−1

Question: And the λabs ([1]; MeCN)?
Answer: 767 nm

Question: And the λem ([1]; MeCN)?
Answer: 789 nm

Question: And the APE inhibition (APE; 60 min APE incubation)?
Answer: no detectable inhibition

Question: What about the APE inhibition (APE; APE and Cy7MX incubated together before addition of AP-DNA, variable time, 2,2,2-trifluoroacetate) of the same compound?
Answer: did have inhibitory effects on APE; also recorded: mild inhibition

Question: What about the APE inhibition (APE; after 3 h incubation of APE with Cy7MX) of the same compound?
Answer: about 50%

Question: What about the APE inhibition (APE; tetrahydrofuran (THF) base in place of the AP site) of the same compound?
Answer: moderate inhibition of APE

Question: And the “SSB activity of the probe itself” value (U:A-paired DNA; U:A-paired DNA treated with Cy7MX alone (no enzymes))?
Answer: no SSB activity

Question: What about the SSB activity (U:A-paired DNA; U:A-paired DNA with Cy7MX together with UDG and APE) of the same compound?
Answer: the SSB activity was reduced

Question: What about the “time to complete reaction” value [2] of the same compound?
Answer: approximately 10 min
